From patent publication US6710048B2, “Pyrazine derivatives as modulators of tyrosine kinases” (Ortho-McNeil Pharmaceutical, Inc., priority 2000, dated 2004)
Read-outs that look alike come from different tables or passages of the source.

Tests used:
[1] = molecular target: T1, CDK1 (cyclin dependent kinase 1) / cyclin B (Homo sapiens, UniProt P06493); assay: CDK1 kinase assay; type: biochemical
T1 construct: purchased New England Biolabs 6020; host or cells: insect cells
Method: (§1) The term n.d. means not tested.
Assays to test compound inhibition of other kinases were preformed using methods that measure the amount of phosphorylation of a biotinylated peptide substrate. Biotinylated peptide substrates were selected from the literature as appropriate for the enzyme being evaluated. The general procedure used to assay for kinase activity is as follows: A kinase reaction mix was prepared in 50 mM Tris-HCl pH=8, 10 mM MgCl2, 0.1 mM NaVO4, 1 mM DTT, 5-10 μM ATP, 0.25-1 μM biotinylated peptide substrate, 0.2-0.8 μCuries per well ^33P-γ-ATP [2000-3000 Ci/mmol]. Assay conditions vary slightly for each protein kinase, for example, insulin receptor kinase requires 10 mM MnCl2 for activity and Calmodulin-dependent protein kinase requires calmodulin and 2 mM CaCl2. The reaction mixture was dispensed into the wells of a streptavidin coated Flashplate and 1 μl drug stock in 100% DMSO was added to a 100 μl reaction volume resulting in a final concentration of 1% DMSO in the reaction. Enzyme was diluted in 50 mM Tris-HCl pH=8.0, 0.1% BSA and added to each well. The reaction was incubated for one hour at 30° C. in the presence of compound. After one hour the reaction mix was aspirated from the plate and the plate was washed with PBS containing 100 mM EDTA. The plate was read on a scintillation counter to determine ^33P-γ-ATP incorporated into the immobilized peptide. […] A maximum and minimum signal for the assay was determined on each plate. The IC50 was calculated from the dose response curve of the percent inhibition of the maximum signal in the assay according to the formula [max signal−background/test compound signal−background (100)=% inhibition] by graphing the percent inhibition against the log concentration of test compound. Known inhibitor compounds appropriate for the kinase being assayed were also included on each plate.
VEGF-R (vascular endothelial growth factor receptor-2) is a fusion protein containing a polyhistidine tag at the N-terminus followed by amino acids 786-1343 of the rat VEGF-R2 kinase domain (GenBank Accession #U93306). CDK1 (cyclin dependent kinase 1) is isolated from insect cells expressing both the human CDK1 catalytic subunit and its positive regulatory subunit cyclin B (New England Biolabs, Beverly, Mass., Cat. #6020). CDK4 (cyclin dependent kinase 4) contains amino acids 769 to 921 of the mouse […] protein found in the GST-retinoblastoma protein construct (Santa Cruz Biotechnology, Santa Cruz, Calif.; Cat. #SC-4112). Insulin Receptor Kinase consists of residues 941-1313 of the cytoplasmic domain of the beta-subunit of the human insulin receptor (BIOMOL, Plymouth Meeting, Pa., Cat. #SE-195). Protein Kinase A is the catalytic subunit of cAMP dependent protein kinase-A purified from bovine heart (Upstate Biotech, Lake Placid, N.Y., Cat#14-114). PKC (protein kinase-C) is the gamma or beta isoform of the human protein produced in insect cells (BIOMOL, Plymouth Meeting, Pa., Cat. #SE-143). Casein Kinase 1 is a truncation at amino acid 318 of the C-terminal portion of the rat CK1 delta isoform produced in E.coli (New England Biolabs, Beverly, Mass., Cat. #6030). Casein Kinase 2 includes the alpha and beta subunits of the human CK2 protein produced in E.coli (New England Biolabs, Beverly, Mass., Cat. #6010). Calmodulin Kinase (calmodulin-dependent protein kinase 2) is a truncated version of the alpha subunit of the rat protein produced in insect cells (New England Biolabs, Beverly, Mass., Cat. #6060). Glycogen Synthase Kinase-3 is the beta isoform of the rabbit enzyme produced in E. coli (New England Biolabs, Beverly, Mass., Cat. #6040). MAP Kinase is the rat ERK-2 isoform containing a polyhistidine tag at the N-terminus produced in E. coli. and activated by phosphorylation with MEK1 prior to purification (BIOMOL, Plymouth Meeting, Pa., Cat. #SE-137). EGFR (epidermal growth factor receptor) is purified from human A431 cell membranes (Sigma, St. Louis, Mo., Cat.# E3641). […]

[2] = molecular target: T2, VEGF-R (vascular endothelial growth factor receptor-2) (Rattus norvegicus, UniProt O08775); assay: VEGF-R screening assay (33P FlashPlate kinase assay); type: biochemical
T2 construct: polyhistidine (6xHis) (N)
Method: A kinase reaction mixture was prepared containing 50 mM Tris-HCl pH=8, 10 mM MgCl2, 0.1 mM NAPO4, 1 mM DTT, 10 μM ATP, 0.025 μM biotinylated peptide substrate and 0.8 μCuries per well ^33P-γ-ATP [2000-3000 Ci/mmol]. 70 μl of the kinase reaction mixture was dispensed into the well of a streptavidin coated FlashPlate™ (Cat. # SMP103, NEN, Boston, Mass.). Then 1 μl of test compound stock in 100% DMSO was added to the wells resulting in a final concentration of 1% DMSO in the reaction with a 100 μl final reaction volume. Next, soluble rat tyrosine kinase containing an N-terminal 6×HIS tag was diluted in 50 mM Tris-HCl pH=8.0, 0.1% BSA at a concentration of 5 ng per microliter and 30 μl (150 ng enzyme per test well) was added to each well to initiate the reaction. The reaction was incubated for one hour at 30° C. At the end of the 1-hour incubation, the reaction was terminated by aspirating the reaction mixture from the plate and washing the wells twice with PBS containing 100 mM EDTA. The PLCI biotinylated peptide substrate becomes immobilized on the Flashplate™ and the incorporation of ^33P-γ-ATP was measured by reading the plate on a scintillation counter. Inhibition of the enzymatic activity of the VEGF-R was measured by observing a reduced amount of ^33P-γ-ATP incorporated into the immobilized peptide.
as §1
Assays to test compound inhibition of other kinases were preformed using methods that measure the amount of phosphorylation of a biotinylated peptide substrate. Biotinylated peptide substrates were selected from the literature as appropriate for the enzyme being evaluated. The general procedure used to assay for kinase activity is as follows: A kinase reaction mix was prepared in 50 mM Tris-HCl pH=8, 10 mM MgCl2, 0.1 mM NaVO4, 1 mM DTT, 5-10 μM ATP, 0.25-1 μM biotinylated peptide substrate, 0.2-0.8 μCuries per well ^33P-γ-ATP [2000-3000 Ci/mmol]. Assay conditions vary slightly for each protein kinase, for example, insulin receptor kinase requires 10 mM MnCl2 for activity and Calmodulin-dependent protein kinase requires calmodulin and 2 mM CaCl2. The reaction mixture was dispensed into the wells of a streptavidin coated Flashplate and 1 μl drug stock in 100% DMSO was added to a 100 μl reaction volume resulting in a final concentration of 1% DMSO in the reaction. Enzyme was diluted in 50 mM Tris-HCl pH=8.0, 0.1% BSA and added to each well. The reaction was incubated for one hour at 30° C. in the presence of compound. After one hour the reaction mix was aspirated from the plate and the plate was washed with PBS containing 100 mM EDTA. The plate was read on a scintillation counter to determine ^33P-γ-ATP incorporated into the immobilized peptide. Test compounds were assayed in duplicate at 8 concentrations [100 tM, 10 μM, 1 μM, 100 nM, 10 nM, 1 nM, 100 μM, 10 μM]. A maximum and minimum signal for the assay was determined on each plate. The IC50 was calculated from the dose response curve of the percent inhibition of the maximum signal in the assay according to the formula [max signal−background/test compound signal−background (100)=% inhibition] by graphing the percent inhibition against the log concentration of test compound. Known inhibitor compounds appropriate for the kinase being assayed were also included on each plate.
VEGF-R (vascular endothelial growth factor receptor-2) is a fusion protein containing a polyhistidine tag at the N-terminus followed by amino acids 786-1343 of the rat VEGF-R2 kinase domain (GenBank Accession #U93306). CDK1 (cyclin dependent kinase 1) is isolated from insect cells expressing both the human CDK1 catalytic subunit and its positive regulatory subunit cyclin B (New England Biolabs, Beverly, Mass., Cat. #6020). CDK4 (cyclin dependent kinase 4) contains amino acids 769 to 921 of the mouse […] protein found in the GST-retinoblastoma protein construct (Santa Cruz Biotechnology, Santa Cruz, Calif.; Cat. #SC-4112). […]

[3] = Tables 1-3, >10 or >100 = no 50% inhibition at highest dose tested, read-out: CDK IC50
[4] = Tables 1-3, >10 or >100 = no 50% inhibition at highest dose tested, read-out: VEGF-R IC50
[5] = Table 4 kinase selectivity, read-out: IC50, Assay 1 VEGF-R
[6] = Table 4 kinase selectivity, 10 = approximate value, read-out: IC50, Assay 2 CDK1

T2 sequence (O08775 786-1343): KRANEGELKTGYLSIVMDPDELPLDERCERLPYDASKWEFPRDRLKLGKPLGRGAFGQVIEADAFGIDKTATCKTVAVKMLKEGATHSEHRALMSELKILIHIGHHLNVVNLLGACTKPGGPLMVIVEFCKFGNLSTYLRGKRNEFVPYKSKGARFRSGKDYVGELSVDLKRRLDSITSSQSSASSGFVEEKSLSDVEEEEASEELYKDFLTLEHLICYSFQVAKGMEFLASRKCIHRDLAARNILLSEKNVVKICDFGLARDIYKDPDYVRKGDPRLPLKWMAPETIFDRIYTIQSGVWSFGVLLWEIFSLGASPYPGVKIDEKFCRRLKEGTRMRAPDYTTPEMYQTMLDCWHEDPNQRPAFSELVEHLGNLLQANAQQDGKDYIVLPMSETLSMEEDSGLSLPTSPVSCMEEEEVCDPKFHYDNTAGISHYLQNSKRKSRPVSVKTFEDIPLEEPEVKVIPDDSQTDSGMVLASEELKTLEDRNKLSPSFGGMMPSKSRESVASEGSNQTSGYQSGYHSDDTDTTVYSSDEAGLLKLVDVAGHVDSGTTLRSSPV
T1 sequence (P06493 whole entry): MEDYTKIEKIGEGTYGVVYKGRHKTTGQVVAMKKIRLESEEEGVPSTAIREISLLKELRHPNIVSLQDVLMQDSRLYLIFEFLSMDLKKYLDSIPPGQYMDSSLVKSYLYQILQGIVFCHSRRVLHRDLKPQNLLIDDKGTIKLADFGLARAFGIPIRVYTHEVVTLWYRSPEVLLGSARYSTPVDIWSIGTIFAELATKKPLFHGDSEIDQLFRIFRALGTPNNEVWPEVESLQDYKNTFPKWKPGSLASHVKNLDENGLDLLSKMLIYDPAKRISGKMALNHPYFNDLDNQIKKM
T1 sequence (P14635 whole entry partner): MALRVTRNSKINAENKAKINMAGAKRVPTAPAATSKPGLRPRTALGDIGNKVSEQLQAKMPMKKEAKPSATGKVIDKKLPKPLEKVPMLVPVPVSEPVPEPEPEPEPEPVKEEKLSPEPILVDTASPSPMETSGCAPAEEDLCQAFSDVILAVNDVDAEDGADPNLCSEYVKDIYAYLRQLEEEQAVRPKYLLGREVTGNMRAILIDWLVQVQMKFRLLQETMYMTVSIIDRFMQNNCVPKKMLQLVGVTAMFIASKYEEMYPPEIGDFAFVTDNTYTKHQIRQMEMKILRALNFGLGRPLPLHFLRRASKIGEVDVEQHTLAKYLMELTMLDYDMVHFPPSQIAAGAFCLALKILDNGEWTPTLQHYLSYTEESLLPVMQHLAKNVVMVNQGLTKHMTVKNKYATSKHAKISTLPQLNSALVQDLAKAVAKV

Compound	IC50 [1, 3] [µM]	IC50 [2, 4] [µM]	IC50 [2, 5] [µM]	IC50 [1, 6] [µM]
CCOC(=O)c1cncc(-c2cncc(Nc3cccc(Cl)c3)n2)c1 [Cmd 1]	> 10			
Nc1cncc(-c2cncc(Nc3cccc(Cl)c3)n2)c1 [Cmd 5]	11.7	1.16		
OCCNc1cncc(-c2cncc(Nc3cccc(Cl)c3)n2)c1 [Cmd 31]	~10	0.15		
Clc1cccc(Nc2cncc(-c3cncc(NCCCN4CCOCC4)c3)n2)c1 [Cmd 34]	> 100	0.18		
COCCNC(=O)c1cncc(-c2cncc(Nc3cccc(Cl)c3)n2)c1 [Cmd 36]	> 100	~10		
CN(C)CCCNC(=O)c1cncc(-c2cncc(Nc3cccc(Cl)c3)n2)c1 [Cmd 37]	> 100	5.5		
CN(C)CCNC(=O)c1cncc(-c2cncc(Nc3cccc(Cl)c3)n2)c1 [Cmd 38]	3.69	4.3		
CCOCCCNC(=O)c1cncc(-c2cncc(Nc3cccc(Cl)c3)n2)c1 [Cmd 40]	> 100	> 100		
COCC(=O)Nc1cncc(-c2cncc(Nc3cccc(Cl)c3)n2)c1 [Cmd 41]	> 100	0.36		
CN(C)c1ccc(C(=O)Nc2cncc(-c3cncc(Nc4cccc(Cl)c4)n3)c2)cc1 [Cmd 42]	> 100	> 100		
O=C(Nc1cncc(-c2cncc(Nc3cccc(Cl)c3)n2)c1)c1cccnc1 [Cmd 43]	> 100	1.12		
OCCCNc1cncc(-c2cncc(Nc3cccc(F)c3)n2)c1 [Cmd 52]	~100	0.17		
COc1cccc(Nc2cncc(-c3cncc(NCCCO)c3)n2)c1 [Cmd 57]	81.4	0.81		
OCCCNc1cncc(-c2cncc(NCc3ccccc3)n2)c1 [Cmd 62]	34.4	1.05		
Clc1cccc(Nc2cncc(-c3cncc(NCCCN4CCNCC4)c3)n2)c1 [Cmd 69]	> 10	0.364		
Clc1cccc(Nc2cncc(-c3cncc(NCCCCc4ccncc4)c3)n2)c1 [Cmd 70]		0.295		
O=C(Nc1cncc(-c2cncc(Nc3cccc(Cl)c3)n2)c1)N1CCCC1 [Cmd 74]	> 10	0.578		
OCCOCCOCCNc1cncc(-c2cncc(Nc3cccc(Cl)c3)n2)c1 [Cmd 78]	> 10	0.282		
Clc1cccc(Nc2cncc(-c3cncc(NCCCc4ccccc4)c3)n2)c1 [Cmd 80]	> 10	2.28		
CCN(CC)C(=O)CNc1cncc(-c2cncc(Nc3cccc(Cl)c3)n2)c1 [Cmd 81]	> 10	1.1		

More lines, now with the values ahead:

IC50 [1, 3] [µM]	IC50 [2, 4] [µM]	IC50 [2, 5] [µM]	IC50 [1, 6] [µM]	Compound
> 10	4.3			Clc1cccc(Nc2cncc(-c3cncc(NCc4ccccc4)c3)n2)c1 [Cmd 82]
> 10	> 10			Clc1cccc(Nc2cncc(-c3cncc(NCCOc4ccccc4)c3)n2)c1 [Cmd 83]
2.03	0.125	0.125	2.03	CCOC(=O)CCCNc1cncc(-c2cncc(Nc3cccc(Cl)c3)n2)c1 [Cmd 84]
> 10	0.085	0.085	> 10	COCCOCCNc1cncc(-c2cncc(Nc3cccc(Cl)c3)n2)c1 [Cmd 85]
> 10	> 10			Clc1cccc(Nc2cncc(-c3cncc(NCCCN4CCN(c5cccc(Cl)c5)CC4)c3)n2)c1 [Cmd 86]
> 10	1			Clc1ccc(Nc2cncc(-c3cncc(NCCCc4ccncc4)c3)n2)cc1 [Cmd 87]
> 10	0.154			COc1ccc(Nc2cncc(-c3cncc(NCCCc4ccncc4)c3)n2)cc1 [Cmd 88]
> 10	0.268			Clc1ccc(Nc2cncc(-c3cncc(NCCCc4ccncc4)c3)n2)cc1Cl [Cmd 89]
> 10	> 10			OCCCNc1cncc(-c2cncc(Oc3cccc(Cl)c3)n2)c1 [Cmd 96]
> 10	0.99			COCCOCC(=O)Nc1cncc(-c2cncc(Nc3cccc(Cl)c3)n2)c1 [Cmd 98]
> 10	> 10			O=C(COc1ccccc1)Nc1cncc(-c2cncc(Nc3cccc(Cl)c3)n2)c1 [Cmd 99]
> 10	> 10			O=C(CCCOc1ccccc1)Nc1cncc(-c2cncc(Nc3cccc(Cl)c3)n2)c1 [Cmd 100]
> 10	> 10			O=C(COCc1ccccc1)Nc1cncc(-c2cncc(Nc3cccc(Cl)c3)n2)c1 [Cmd 101]
> 10	0.93			CCOCC(=O)Nc1cncc(-c2cncc(Nc3cccc(Cl)c3)n2)c1 [Cmd 102]
